# Data as given in PMC8587863, “Discovery of Novel Delta Opioid Receptor (DOR) Inverse Agonist and Irreversible (Non-Competitive) Antagonists” (Molecules, 2021).
# Assays:
# [1] = target: T1, human DOR (delta opioid receptor) (Homo sapiens, UniProt P41143); experiment: […]-GTPgammaS coupling, membranes; format: biochemical; settings: antagonist mode against SNC80 curve; 30 °C, 1 h, 40 uM GDP; proposed covalent / irreversible
# T1 construct: gene OPRD1; full-length receptor expressed in CHO-K1 cells
# [2] = target: T2, human kappa opioid receptor (KOR) (Homo sapiens, UniProt P41145); experiment: competition radioligand binding, 3H-diprenorphine, membranes
# T2 construct: gene OPRK1; full-length receptor expressed in CHO cells; membranes
# [3] = target: T1, human DOR (delta opioid receptor); experiment: cAMP accumulation, live DOR-CHO cells; format: cell-based
# [4] = target: T1, human DOR (delta opioid receptor); experiment: competition radioligand binding, 3H-diprenorphine, membranes
# [5] = target: T3, human mu opioid receptor (MOR) (Homo sapiens, UniProt P35372); experiment: as above; settings: room temperature, 1 h, one-site fit; unreliable
# T3 construct: gene OPRM1; full-length receptor expressed in CHO cells; membranes
Structure (SMILES),% SNC80 efficacy (EMAX) at 1 nM [1] [%],Ki [2] [nM],EC50 [3] [nM],Ki [4] [nM],KI [5]
"Oc1ccc2c3c1O[C@H]1c4[nH]c5ccc(/C=C/c6ccccn6)cc5c4C[C@@]4(O)[C@@H](C2)N(CC2CC2)CC[C@]314 [SRI-9342, (4bS,8R,8aS,14bR)-7-(Cyclopropylmethyl)-11-((E)-2-(pyridin-2-yl)vinyl)-5,6,7,8,14,14b-hexahydro-4,8-methanobenzofuro [2,3-a]pyrido[4,3-b]carbazole-1,8a(9H)-diol]",84,–,–,–,–
"O=C(C1CC1)N1CC[C@]23c4c5ccc(O)c4O[C@H]2c2[nH]c4ccccc4c2C[C@@]3(O)[C@H]1C5 [SYK-623, Cyclopropyl((4bS,8R,8aS,14bR)-1,8a-dihydroxy-5,6,8a,9,14,14b-hexahydro-4,8-methanobenzofuro[2,3−a]pyrido [4,3−b]carbazol-7(8H)-yl)methanone]",–,2000 ± 290,265,11 ± 1,"> 3,333 nM"
"O=C(C1CC1)N1CC[C@]23c4c5ccc(O)c4O[C@H]2c2ncc(-c4ccc(Cl)cc4)cc2C[C@@]3(O)[C@H]1C5 [SRI-45128, ((4bS,8R,8aS,13bR)-11-(4-Chlorophenyl)-1,8a-dihydroxy-5,6,8,8a,9,13b-hexahydro-7H-4,8-methanobenzofuro[3,2-h]pyrido[3,4-g]quinolin-7-yl)(cyclopropyl)methanone]",–,2500 ± 510,770,24 ± 2,"> 3,333 nM"
